This is an account of results in US12479847B2 (DANA-FARBER CANCER INSTITUTE, INC., priority 2019, dated 2025).

Experiment in all cases: KINOMEscan (ScanMAX) kinase profiling
Common to all, as to assay type: binding

The target in assay [1] is T1, panel of 468 kinases (Homo sapiens, UniProt Q9UBE8).
T1 construct: purchased KINOMEscan (ScanMAX) service
T1 sequence (Q9UBE8 1-527): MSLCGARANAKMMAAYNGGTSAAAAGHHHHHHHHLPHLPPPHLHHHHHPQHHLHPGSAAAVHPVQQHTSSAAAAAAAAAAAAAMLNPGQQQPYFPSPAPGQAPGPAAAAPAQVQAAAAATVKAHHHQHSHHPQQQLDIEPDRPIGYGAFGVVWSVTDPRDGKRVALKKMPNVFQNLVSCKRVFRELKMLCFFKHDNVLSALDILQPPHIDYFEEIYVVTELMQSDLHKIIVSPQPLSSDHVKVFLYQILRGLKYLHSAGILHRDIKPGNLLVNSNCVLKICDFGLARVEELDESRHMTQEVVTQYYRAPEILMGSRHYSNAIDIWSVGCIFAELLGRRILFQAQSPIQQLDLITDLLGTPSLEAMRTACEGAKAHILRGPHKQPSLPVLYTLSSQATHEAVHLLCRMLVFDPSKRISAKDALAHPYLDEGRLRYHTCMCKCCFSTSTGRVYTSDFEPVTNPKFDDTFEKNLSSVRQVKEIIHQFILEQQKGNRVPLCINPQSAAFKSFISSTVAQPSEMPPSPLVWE
The note with it: NLK; 1 μM; read-out: % control. The protocol:
(§1) The kinase selectivity of inventive compounds 12, 75, and 77 was evaluated by KINOMEscan®. KINOMEscan® (ScanMAX™) analysis was performed against a near comprehensive panel of 468 kinases. The control percentage (% control) for inventive compounds at 1 μM in DMSO was determined by Equation 1: % control=(inventive compound−positive control)/(negative control−positive control)×100%, Equation 1
(§2) wherein the positive control is a compound with a % control value of 0% relative light units (RLU), and the negative control (i.e., DMSO) has % control value of 100% RLU. The enzyme selectivity in the present invention is defined as follows: inventive compounds are considered active for an enzyme when the observed % control is less than 35% (<35%).

For assay [2], the target named is T2, panel of 468 kinases (Homo sapiens, UniProt Q15835).
T2 construct: purchased KINOMEscan (ScanMAX) service
T2 sequence (Q15835 1-563): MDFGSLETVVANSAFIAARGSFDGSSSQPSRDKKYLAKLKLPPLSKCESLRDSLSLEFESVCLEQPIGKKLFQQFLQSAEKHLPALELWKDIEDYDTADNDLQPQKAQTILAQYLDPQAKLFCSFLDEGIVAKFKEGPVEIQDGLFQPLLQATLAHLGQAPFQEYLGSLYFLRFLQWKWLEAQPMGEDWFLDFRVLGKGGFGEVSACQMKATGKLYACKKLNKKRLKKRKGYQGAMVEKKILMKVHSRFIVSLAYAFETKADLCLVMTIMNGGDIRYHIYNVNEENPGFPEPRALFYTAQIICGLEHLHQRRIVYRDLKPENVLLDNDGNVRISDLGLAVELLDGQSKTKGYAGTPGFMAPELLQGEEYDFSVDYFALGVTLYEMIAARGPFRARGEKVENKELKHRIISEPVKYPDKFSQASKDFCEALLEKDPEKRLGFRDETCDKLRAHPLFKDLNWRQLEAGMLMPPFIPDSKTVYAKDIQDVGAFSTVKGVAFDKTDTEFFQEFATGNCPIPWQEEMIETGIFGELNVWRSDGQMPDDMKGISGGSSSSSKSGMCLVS
The note with it: GRK1; 1 μM; read-out: % control. As to the method: as §1, §2

Assay [3] concerns the target T3, panel of 468 kinases (Homo sapiens, UniProt Q13043).
T3 construct: purchased KINOMEscan (ScanMAX) service
T3 sequence (Q13043 1-487): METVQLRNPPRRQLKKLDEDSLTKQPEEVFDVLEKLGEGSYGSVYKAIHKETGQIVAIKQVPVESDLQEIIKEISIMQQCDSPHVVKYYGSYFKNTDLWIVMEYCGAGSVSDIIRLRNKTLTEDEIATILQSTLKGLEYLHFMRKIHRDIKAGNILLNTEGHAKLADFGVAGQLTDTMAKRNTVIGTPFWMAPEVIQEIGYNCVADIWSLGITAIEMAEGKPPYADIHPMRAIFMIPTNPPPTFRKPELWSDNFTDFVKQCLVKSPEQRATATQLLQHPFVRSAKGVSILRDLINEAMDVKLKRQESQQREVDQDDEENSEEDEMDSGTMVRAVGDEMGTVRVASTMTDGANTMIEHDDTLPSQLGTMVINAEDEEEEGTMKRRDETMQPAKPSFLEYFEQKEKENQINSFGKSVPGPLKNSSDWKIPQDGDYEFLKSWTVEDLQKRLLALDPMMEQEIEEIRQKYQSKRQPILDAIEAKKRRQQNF
The note with it: MST1; 1 μM; read-out: % control. As to the method:
as §1, §2

Assay [4] has as its target T4, panel of 468 kinases (Homo sapiens, UniProt Q16832).
T4 construct: purchased KINOMEscan (ScanMAX) service
T4 sequence (Q16832 22-855): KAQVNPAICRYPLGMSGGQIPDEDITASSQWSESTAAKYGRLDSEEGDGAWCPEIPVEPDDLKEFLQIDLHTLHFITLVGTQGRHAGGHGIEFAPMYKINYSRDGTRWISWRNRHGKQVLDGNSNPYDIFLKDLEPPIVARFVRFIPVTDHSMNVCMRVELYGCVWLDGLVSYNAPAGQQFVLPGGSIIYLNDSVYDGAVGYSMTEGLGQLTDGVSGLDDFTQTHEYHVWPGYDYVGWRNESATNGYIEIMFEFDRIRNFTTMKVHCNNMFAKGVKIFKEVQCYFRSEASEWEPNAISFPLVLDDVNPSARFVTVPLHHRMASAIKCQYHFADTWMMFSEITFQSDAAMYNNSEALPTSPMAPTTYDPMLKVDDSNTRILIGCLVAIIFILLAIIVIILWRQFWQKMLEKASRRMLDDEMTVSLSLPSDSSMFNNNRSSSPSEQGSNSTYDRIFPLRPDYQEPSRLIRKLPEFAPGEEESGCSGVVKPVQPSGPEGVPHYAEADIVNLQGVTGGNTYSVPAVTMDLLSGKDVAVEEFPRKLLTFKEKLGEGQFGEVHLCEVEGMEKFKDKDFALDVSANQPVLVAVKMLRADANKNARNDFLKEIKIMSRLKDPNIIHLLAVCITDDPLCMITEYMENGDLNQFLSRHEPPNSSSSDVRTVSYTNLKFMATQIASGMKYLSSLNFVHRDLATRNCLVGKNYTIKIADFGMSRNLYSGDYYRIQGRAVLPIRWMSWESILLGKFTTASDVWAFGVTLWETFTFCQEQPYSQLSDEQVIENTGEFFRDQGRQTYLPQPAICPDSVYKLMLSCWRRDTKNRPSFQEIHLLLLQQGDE
The note with it: DDR2; 1 μM; read-out: % control. As to the method:
as §1, §2

For assay [5], the target named is T5, panel of 468 kinases (Homo sapiens, UniProt P19784).
T5 construct: purchased KINOMEscan (ScanMAX) service
T5 sequence (P19784 whole entry): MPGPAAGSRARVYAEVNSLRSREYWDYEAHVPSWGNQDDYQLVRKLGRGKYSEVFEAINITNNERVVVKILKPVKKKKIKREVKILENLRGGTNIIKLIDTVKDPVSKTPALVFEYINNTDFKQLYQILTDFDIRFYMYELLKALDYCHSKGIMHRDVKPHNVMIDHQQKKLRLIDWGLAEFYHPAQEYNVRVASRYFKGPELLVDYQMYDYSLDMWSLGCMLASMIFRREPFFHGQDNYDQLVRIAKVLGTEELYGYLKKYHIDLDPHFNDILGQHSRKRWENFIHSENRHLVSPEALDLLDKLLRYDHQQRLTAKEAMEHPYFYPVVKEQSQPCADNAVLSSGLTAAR
The note with it: CSNK2A2; 1 μM; read-out: % control. The protocol: as §1, §2

For `CNc1nc(Nc2ccc(S(=O)(=O)N3CCC(N4CCOCC4)CC3)cc2OC)nc2[nH]cc(Cl)c12` [Compound 12, 5-chloro-N2-(2-methoxy-4-((4-morpholinopiperidin-1-yl)sulfonyl)phenyl)-N4-methyl-7H-pyrrolo[2,3-d]pyrimidine-2,4-diamine], the remaining binding at 1 µM at panel of 468 kinases [1] amounted to 100%; on panel of 468 kinases [2], 79%; on panel of 468 kinases [3], 81%; on panel of 468 kinases [4] it was 84%; on panel of 468 kinases [5] it was 97%.
As to `CNc1nc(Nc2ccc(C(=O)N3CCC(N4CCOCC4)CC3)c3c2OCO3)nc2[nH]cc(Cl)c12` [Compound 75, (7-((5-chloro-4-(methylamino)-7H-pyrrolo[2,3-d]pyrimidin-2-yl)amino)benzo[d][1,3]dioxol-4-yl)(4-morpholinopiperidin-1-yl)methanone], the remaining binding at 1 µM at panel of 468 kinases [1] stood at 100%; at panel of 468 kinases [2], 88%; on panel of 468 kinases [3], 100%; at panel of 468 kinases [4], 93%; at panel of 468 kinases [5], 49%.
As for `CNc1nc(Nc2ccc(P3(=O)CCN(C4CCOCC4)CC3)cc2OC)nc2[nH]cc(Cl)c12` [Compound 77, 4-(4-((5-chloro-4-(methylamino)-7H-pyrrolo[2,3-d]pyrimidin-2-yl)amino)-3-methoxyphenyl)-1-(tetrahydro-2H-pyran-4-yl)-1,4-azaphosphinane 4-oxide], the remaining binding at 1 µM at panel of 468 kinases [1] stood at 100%; on panel of 468 kinases [2], 88%; at panel of 468 kinases [3] it was 100%; on panel of 468 kinases [4] it was 84%; at panel of 468 kinases [5], 80%.
